Data on 35 compounds can be found in PubChem BioAssay AID624254 (Broad Institute, 2012).

Structures are written as SMILES. Activity calls are given as the source filed them. The rule behind the calls is not given here.

The assay can be described thus: Luciferase light induction in v cholerae bh1651, agonist dose response, confirmatory (AID 624254). The following applies: V. cholerae BH1651 luxOD47E, luciferase light induction, 6 h; at 50 µM (top of the series).
On to `C[C@@H]1CN([C@@H](C)CO)C(=O)c2cccc(NC(=O)Nc3ccc4c(c3)OCO4)c2O[C@@H]1CN(C)S(=O)(=O)c1ccccc1`, for which the “activation (light increase)” value is “inactive”.

In the case of `OCCN1CCN(CC(O)COc2ccc(Cl)cc2)CC1` (stereo not given), the “activation (light increase)” value is “inactive”.

As for `O=C(Oc1ccc2ccc(OC(=O)N3CCOCC3)cc2c1)N1CCOCC1`, the “activation (light increase)” value is “inactive”.

Take `COc1ccccc1NC(=O)CN1CCN(c2ccccc2F)CC1`: the “activation (light increase)” value was “inactive”.

In the case of `CCOC(=O)C1CCN(C(=O)Nc2ccc3c(c2)nc(C)n3C)CC1`, the “activation (light increase)” value is “inactive”.

With `Cc1ccc(S(=O)(=O)N(C)c2nonc2C)cc1`, the “activation (light increase)” value was “inactive”.

Turning to `O=c1c2ccccc2nnn1CSc1nnc2ccccn12`, the “activation (light increase)” value is “inactive”.

`O=C(Nc1ccc(Cl)c(Cl)c1)Nc1ccccc1C(=O)O`: the “activation (light increase)” value is “inactive”.

In the case of `C=Cn1c(C(=O)O)ccc1-c1ccc(CC)cc1`, the “activation (light increase)” value was “inactive”.

Consider `OCCn1c(SC2CCCCC2)nc2ccccc21`, for which the “activation (light increase)” value is “inactive”.

`O=C(c1ccccc1)N1CCC(c2nc(-c3ccc(S(=O)(=O)N4CCOCC4)cc3)no2)CC1`: the “activation (light increase)” value was “inactive”.

As to `Cc1ccc(C(=O)OCC(=O)NC2CCCC2)cc1C`, the “activation (light increase)” value is “inactive”.

Turning to `O=C(Nc1ccc2oc(-c3ccc4ccccc4c3)nc2c1)c1cccs1`, the “activation (light increase)” value is “inactive”.

Take `CCN(CC(=O)Nc1c(F)cccc1F)C(=O)c1ccc(C)c(S(=O)(=O)N2CCCCC2)c1`: the “activation (light increase)” value is “inactive”.

In the case of `CC1CCN(c2ccccc2NC(=O)c2cc3ccccc3o2)CC1`, the “activation (light increase)” value was “inactive”.

In the case of `O=c1c2c3c(sc2ncn1Cc1ccc(F)cc1)CCC3`, the “activation (light increase)” value was “inactive”.

Consider `CCOC(=O)c1c(NC(=O)c2cccs2)sc(C)c1CC`, for which the “activation (light increase)” value was “inactive”.

As for `COCc1nnc(NS(=O)(=O)c2ccc(Br)cc2)s1`, the “activation (light increase)” value was “inactive”.

For the compound `CCCOc1ccc(-c2nc(C#N)c(N3CCN(CC)CC3)o2)cc1`, the “activation (light increase)” value is “inactive”.

Take `O=C(Nc1cccc(Cl)c1)Nc1ccc(Cl)cn1`: the “activation (light increase)” value is “inactive”.

For `Cc1ccc(/C=C/C(=O)OCC(=O)NCCc2ccc(S(N)(=O)=O)cc2)o1`, the “activation (light increase)” value is “inactive”.

On to `CCOC(=O)C1(CCOc2ccccc2)CCN(Cc2cc(OC)cc(OC)c2)CC1`, for which the “activation (light increase)” value was “inactive”.

In the case of `Cc1cccc(NS(=O)(=O)c2ccc(Oc3ccccc3)cc2)n1`, the “activation (light increase)” value is “inactive”.

Turning to `O=C(c1cc2cc(Cl)ccc2oc1=O)N1CCCC1`, the “activation (light increase)” value is “inactive”.

`CC12CCC(=O)N1C(C(=O)NNC(=O)COc1ccc(Br)cc1)CS2` (stereo not given): the “activation (light increase)” value was “inactive”.

As for `O=C(Nc1c(F)c(F)c(F)c(F)c1F)C1CCCCC1`, the “activation (light increase)” value was “inactive”.

Regarding `CCN(CCNC(=O)C1CCCN(S(=O)(=O)CC)C1)c1ccccc1` (stereo not given), the “activation (light increase)” value was “inactive”.

As for `COc1ccc(Cc2nnc(NC(=O)C3CC(=O)N(c4ccccc4C)C3)s2)cc1OC` (stereo not given), the “activation (light increase)” value was “inactive”.

For `CCCn1nnnc1NCc1ccc(N(C)C)cc1`, the “activation (light increase)” value is “inactive”.

`CC(C)[C@H](NC(=O)c1ccccc1F)C(=O)OCC(=O)NC1CC1`: the “activation (light increase)” value is “inactive”.

For `COC(=O)c1nnn(-c2nonc2N)c1CSc1nc2ccccc2s1`, the “activation (light increase)” value is “inactive”.

For the compound `Cc1onc(-c2ccccc2)c1C(=O)Nc1nc2c(s1)CCCC2`, the “activation (light increase)” value was “inactive”.

With `CCCCNC(=O)COC(=O)c1ccc(N(C)C)cc1`, the “activation (light increase)” value is “inactive”.

With `N#Cc1nc(-c2ccc(OCc3ccc(Cl)cc3)cc2)oc1NCc1cccnc1`, the “activation (light increase)” value is “inactive”.

In the case of `O=C(O)C1C2CCC(C2)C1C(=O)Nc1cc(F)ccc1F` (stereo not given), the “activation (light increase)” value was “inactive”.
